According to US11896594B2, “Palatable antiparasitic formulations” (Zoetis Services LLC, priority 2018, dated 2024):

How the values were obtained:
[1] = Moxidectin degradation in compressed tablets on accelerated stability (40° C./75% RH); assay type: physicochemical; details: for moxidectin degradation in the final tablets: 3 months 40°/75% RH; for moxidectin degradation: 40° C./75% RH; for moxidectin degradation in the finished product: 6 months accelerated stability
Text: For the moxidectin granulation, four different polymers were screened. Initially, the moxidectin-polymer ratio was about 1:160 (about 21.82 w/w % polymer of intra granular portion). The polymers included hypromellose [hydroxypropylmethyl cellulose (HPMC), Poloxamer 188 (P188), ethyl cellulose, and hydroxypropyl methyl cellulose acetyl succinate MG (HPMC AS MG). […] Use of the polymers in the moxidectin granulation process provided stability to the moxidectin. […] HPMC concentration was then assessed to determine the effect on moxidectin stability in compressed tablets. Concentrations of moxidectin:HPMC were 1:20, 1:80, 1:120, and 1:160 in the moxidectin granulation. These amounts accounted for about 2.72 w/w %, 10.91 w/w %, 16.36 w/w %, and 21.82 w/w % of the moxidectin granulation, respectively. […] Therefore, the 1:80 ratio of moxidectin to HPMC was used to prepare the moxidectin granulations. The amount of HPMC in the moxidectin granulation is about 6 to 18 w/w %; the preferred amount is about 10 to 12 w/w %; and the most preferred amount is about 11 w/w %. In the final composition, the amount of HPMC is about 2.0 w/w % to about 4.0 w/w % of the total tablet weight; and more preferably, about 2.0 to 3 w/w % of the total tablet weight; and even more preferably, about 2.0 to 2.5 w/w % of the total tablet weight. To further control moxidectin degradation, the stability enhancer, meglumine, and the antioxidant, BHT, were added to the moxidectin granulation. […] Use of the higher concentration (2.72 w/w %) of meglumine was used initially to better control the acid catalyzed degradants. However, at 6 months, there was a greater increase in base catalyzed degradation of moxidectin at this concentration of meglumine. […] Similarly, moxidectin degradation was assessed using varying amounts of BHT in the moxidectin granulation.

D. immitis = assay: Prevention of heartworm disease in dogs; assay type: in vivo; details: sensitive isolates; single dose; dogs

In the case of `CO/N=C1\C[C@]2(C[C@@H]3C[C@@H](C/C=C(\C)C[C@@H](C)/C=C/C=C4\CO[C@@H]5[C@H](O)C(C)=C[C@@H](C(=O)O3)[C@]45O)O2)O[C@H](/C(C)=C/C(C)C)[C@H]1C` [moxidectin], the “moxidectin degradation in the final tablets” value ([1]; BHT 0 w/w % in moxidectin granulation) is reported as “about 2.7%”, the “moxidectin degradation in the final tablets” value ([1]; BHT 0.095 w/w % in granulation (0.018 w/w % of tablet)) is reported as “about 1.4%” and the “moxidectin degradation in the final tablets” value ([1]; BHT 0.19 w/w % in granulation (0.037 w/w % of tablet)) is reported as “about 2.3%”. The “moxidectin degradation in the final tablets” value ([1]; BHT 0.38 w/w % in granulation (0.074 w/w % of tablet)) was “about 2.2%”, the moxidectin degradation ([1]; HPMC AS MG in moxidectin granulation (about 1:160), 3-months) was 12.1% and the moxidectin degradation ([1]; HPMC in moxidectin granulation (moxidectin-polymer about 1:160), 3-months) was 3.6%. The moxidectin degradation ([1]; P188 (Poloxamer 188) in moxidectin granulation (about 1:160), 3-months) was 5.2%, the total moxidectin degradation ([1]; compressed tablets manufactured with HPMC, 6-month accelerated stability) was 5-6% and the moxidectin degradation ([1]; ethyl cellulose in moxidectin granulation (about 1:160), 3-months) was 7.4%. The “moxidectin degradation in the final tablets” value ([1]; meglumine 0 w/w % in moxidectin granulation) was “about 2.4%”, the “moxidectin degradation in the final tablets” value ([1]; meglumine 1.36 w/w % in granulation (0.27 w/w % of tablet)) was “about 1.0%” and the “moxidectin degradation in the final tablets” value ([1]; meglumine 2.72 w/w % in granulation (0.54 w/w % of tablet)) was “about 0.7%”. The “moxidectin degradation in the finished product” value ([1]; moxidectin:HPMC 1:20 (2.72 w/w % of granulation)) was 5.04%, the “moxidectin degradation in the finished product” value ([1]; moxidectin:HPMC 1:80 (10.91 w/w % of granulation)) was 2.41% and the “moxidectin degradation in the finished product” value ([1]; moxidectin:HPMC 1:120 (16.36 w/w % of granulation)) was 2.26%. For the same compound, the “moxidectin degradation in the finished product” value ([1]; moxidectin:HPMC 1:160 (21.82 w/w % of granulation)) was 1.75%, the moxidectin degradation ([1]; without the use of a polymer, compressed tablets, 2-months) was 16.7% and the “efficacy against sensitive D. immitis isolates” value (D. immitis) was 100%.
